US7767210B2, “RNA virus vaccines and methods” (priority 2005, dated 2010)

How the values were obtained:
[1] = system: NY-99 strain of WNV; assay: MB + light inactivation of WNV, plaque assay on Vero cells; format: cell-based, West Nile Virus; conditions: MB above 2 μM and light; data not shown; stated as 'held true' for this strain
Description: (§1) MB inactivation of West Nile Virus. 1 ml aliquots of WNV at a concentration of 10^7 pfu were mixed with MB (SIGMA INC.) to achieve the desired final concentration of MB in the reaction mixture. Mixtures were incubated for 20 minutes in the dark at room temperature and then subsequently for 10 minutes at 10 cm distance from a 40 watt fluorescent white culture hood light at room temperature. Samples were then diluted to the desired concentration of WNV for plaque assay. Inactivated virus was prepared fresh for each assay and never kept for longer than 2 hours at 4° C. before use. It is contemplated that other RNA viruses as described herein can be similarly treated for vaccine formation.
(§2) Plaque Assays. Five-fold serial dilutions of WNV strains either mock-treated or treated with MB were placed onto Vero cell monolayers cultured in either 6-well plates or T25 culture flasks (GREINER INC.). Virus aliquots were allowed to attach to the cells for 1 hour at normal cell culture conditions. After one hour the virus was aspirated from the cells. The monolayers were washed twice with phosphate-buffer saline (PBS) and overlayed with 2 ml or 5 ml (6-well or T25, respectively) of 1% methylcellulose (SIGMA INC.) medium supplemented with 2% calf serum. Cells were incubated for 5 days. Afterwards the methylcellulose was removed, the monolayers were washed once with PBS and fixed with 100% ice-cold methanol for 5 minutes. The monolayers were subsequently stained with 0.5% Giemsa stain (SIGMA INC.) and plaques counted using a MZ12 dissecting microscope (LEICA INC., Germany).
(§3) As a member of the Flaviviridae family of viruses, WNV utilizes a RNA dependent RNA polymerase for replication. This process is relatively error prone and can lead to the creation of multiple strains. To test the ability of MB to inactivate multiple WNV strains, MB was tested against multiple strains of WNV, including OK02, OK03 and NY-99 (the 1999 prototype virus NY-99 and the more recent Oklahoma isolates from 2002 and 2003). 5×10^3 pfu of OK03 WNV was incubated with 2 μM MB and light. […]

[2] = system: OK02 strain of WNV; assay: as above; format: cell-based, West Nile Virus; conditions: MB above 2 μM and light; FIG. 2 panel A
Description: as §1, §2, §3

[3] = system: OK03 strain of WNV; assay: as above; format: cell-based, West Nile Virus; conditions: MB above 2 μM and light; FIG. 2 panel B; stated as 'held true' for this strain
Description: as §1, §2, §3

[4] = system: WNV; assay: MB photoinactivation of WNV in tissue culture (strain not stated); format: cell-based, West Nile Virus
Description: as §1
as §2, with “Cells were incubated for 5 days. Afterwards the methylcellulose was removed, the monolayers were washed once with PBS and fixed with 100% ice-cold methanol for 5 minutes.” left out

[5] = system: WNV strain OK02; assay: Safety of MB-treated WNV in immunocompetent mice (i.p. injection, survival); format: in vivo, BalbC/j mice; conditions: virus treated with MB+light, doses of 10^3 and 10^4 pfu per animal
[6] = system: WNV; assay: Safety of MB-treated WNV in immunodeficient mice (i.p. injection, survival); format: in vivo, C.B. 17-SCID mice; conditions: 20 μM MB; conclusion from BalbC/j and SCID mice
[7] = cited from earlier work

With CN(C)c1ccc2nc3ccc(N(C)C)cc3[s+]c2c1.[Cl-] [MB, 3,7-Bis(dimethylamino)phenothiazin-5-ium chloride] the “reduction of viral activity” value [1] was ≥ 10^3, the “reduction of viral activity” value [2] was ≥ 10^3 and the “reduction of viral activity” value [3] was ≥ 10^3. The “reduction of virus titer” value ([4]; 20 μM MB + light) was 10^7 pfu, the IC50 ([4]; West Nile virus, MB + light, tissue culture, read-out: IC50 of MB+light inactivation of WNV) was 100 nM and the “WNV-associated morbidity and mortality” value [5] was “completely block-associated morbidity and mortality”. The “effect on WNV-associated morbidity and mortality in vivo” value [6] was “can stop WNV-associated morbidity and mortality”, the oral absorption ([7]; DiSanto and Wagner 1972) was “absorbed orally” and the concentration in blood ([7]; oral 100 mg/kg twice daily (Naylor et al., 1986)) was ~50 µM. For the same compound, the half-life ([7]; oral (DiSanto and Wagner 1972)) was “about 10 h” and the “side effects on long-term oral use” value ([7]; oral, up to 19 months at 100 mg/kg twice daily (Naylor et al., 1986)) was “no reported side effects”.
